Data: patent US8754116B2, “Macrocyclic inhibitors of hepatitis C virus” (Janssen R&D Ireland, priority 2005, dated 2014)

What was measured:
[1] = tested on: HCV replicons (NS3-NS5B regions of HCV type 1b) in Huh-7 luc/neo (Huh-Luc) cells; test: Replicon assay (HCV RNA replication, luciferase read-out); type: cell-based; conditions: Hepatitis C virus, Huh-7, 72 h, incubation of three days, luciferase activity
Experimental: The in vitro antiviral activity against HCV of the compounds of formula (I) was tested in a cellular HCV replicon system based on Lohmann et al. (1999) Science 285:110-113, with the further modifications described by Krieger et al. (2001) Journal of Virology 75: 4614-4624, which is further exemplified in the examples section. This model, while not a complete infection model for HCV, is widely accepted as the most robust and efficient model of autonomous HCV RNA replication currently available. […] It will be appreciated that it is important to distinguish between compounds that specifically interfere with HCV functions from those that exert cytotoxic or cytostatic effects in the HCV replicon model, and as a consequence cause a decrease in HCV RNA or linked reporter enzyme concentration. […]
The replicon cells were plated in 384 well plates in the presence of the test and control compounds which were added in various concentrations. Following an incubation of three days, HCV replication was measured by assaying luciferase activity (using standard luciferase assay substrates and reagents and a Perkin Elmer ViewLux™ ultraHTS microplate imager). […] The inhibitory activity of the compound on luciferase activity was monitored on the Huh-Luc cells, enabling a dose-response curve for each test compound.

HCV NS3/4A protease = HCV NS3/4A protease (Hepatitis C virus genotype 1a, UniProt P27958); test: Inhibition assay (enzymatic assay, depsipeptide substrate hydrolysis); type: biochemical; note: full-length NS3 protease 1 nM, 25 µM NS4A cofactor, 0.5 µM substrate
Sequence of HCV NS3/4A protease (P27958 1027-1657): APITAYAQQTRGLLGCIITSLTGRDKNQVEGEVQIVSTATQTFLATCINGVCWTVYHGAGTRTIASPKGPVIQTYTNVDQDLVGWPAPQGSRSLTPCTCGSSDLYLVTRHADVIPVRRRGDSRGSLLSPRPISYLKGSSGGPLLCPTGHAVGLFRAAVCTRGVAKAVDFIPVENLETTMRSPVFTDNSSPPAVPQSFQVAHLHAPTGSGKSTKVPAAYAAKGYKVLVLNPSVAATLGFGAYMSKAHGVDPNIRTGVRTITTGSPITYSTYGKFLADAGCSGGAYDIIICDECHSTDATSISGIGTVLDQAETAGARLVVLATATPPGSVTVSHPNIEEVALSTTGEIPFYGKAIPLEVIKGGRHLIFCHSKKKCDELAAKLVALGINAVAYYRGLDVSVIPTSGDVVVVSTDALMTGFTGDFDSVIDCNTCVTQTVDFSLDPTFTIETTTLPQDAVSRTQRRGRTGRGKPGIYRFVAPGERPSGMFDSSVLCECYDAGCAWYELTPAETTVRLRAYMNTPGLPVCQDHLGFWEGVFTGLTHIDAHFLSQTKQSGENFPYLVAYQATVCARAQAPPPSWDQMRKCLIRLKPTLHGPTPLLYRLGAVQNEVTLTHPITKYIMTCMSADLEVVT
Experimental: [Landro, 1997 # Biochem 36 9340-9348]. […] The solutions were stored at −20° C. between measurements.
[Liu, 1999 Analytical Biochemistry 267 331-335].

SMILES	EC50 [1] [µM]	Ki (HCV NS3/4A protease) [nM]
CN1CCCC/C=C\[C@@H]2C[C@@]2(C(=O)O)NC(=O)[C@@H]2C[C@@H](n3nnc(-c4ccccc4)n3)C[C@H]2C1=O [Compound 9, 17-(5-phenyltetrazol-2-yl)-13-methyl-2,14-dioxo-3,13-diazatricyclo[13.3.0.0^4,6]octadec-7-ene-4-carboxylic acid]	> 10	> 1000
CN1CCCC/C=C\[C@@H]2C[C@@]2(C(=O)NS(=O)(=O)C2CC2)NC(=O)[C@@H]2C[C@@H](n3nnc(-c4ccccc4)n3)C[C@H]2C1=O [Compound 10, N-[17-(5-phenyltetrazol-2-yl)-13-methyl-2,14-dioxo-3,13-diazatricyclo[13.3.0.0^4,6]octadec-7-ene-4-carbonyl](cyclopropyl)sulfonamide]	3.43	30
